This note sets out measurements from patent US20250120928A1 (University of Maryland, Baltimore, priority 2021, published 2025).

“Also recorded” adds a separate entry of the source.

In data set [1] the test system is LPS-induced endotoxemia mouse model. Kind of data set: Plasma cytokine analysis in the LPS-induced endotoxemia mouse model. It is filed as in vivo, male C57BL/6J mice. Particulars: 50 mg/kg i.p. 3 hours before 20 mg/kg LPS i.p.; blood 3 hours post-LPS. Here is the method: Terminal cardiac blood draws from the left ventricle occurred 3 hours post LPS injections using a 25 g needle and 1 mL syringe into an EDTA coated lavender blood collection tube (BD Medical, Franklin Lakes, NJ). Blood samples were centrifuged at 1000×g for 10 minutes within 30 minutes of collection. Plasma was extracted and diluted 10,000-fold for ELISA IL-6 measurement and diluted 10-fold for TNFα measurements.
Terminal cardiac blood draws from the left ventricle occurred 3 hours post LPS injections using a 25 g needle and 1 mL syringe into an EDTA coated lavender blood collection tubes (BD Medical, Franklin Lakes, NJ). Blood samples were centrifuged at 1000×g for 10 minutes within 30 minutes of collection. Plasma was extracted and diluted 10,000-fold for ELISA IL-6 measurement and diluted 10-fold for TNFα measurements. MAGPIX Luminex bead-based multiplex ELISA (Thermo Fisher Scientific, Waltham, MA) of mouse plasma (diluted 100-fold) measured for 26 various cytokines and chemokines and data was analyzed using the Luminex xPONENT software (Millipore) as per manufacturer's instructions. The 26-plex panel include murine IL-1β, IL-2, IL-4, IL-5, IL-6, IL-9, IL-10, IL-12p70, IL-13, IL-17A (CTLA-8), IL-18, IL-22, IL-23, IL-27, GM-CSF, IFNγ, TNFα, MCP-1 (CCL2), MIP-1α (CCL3), MIP-10 (CCL4), RANTES (CCL5), MCP-3 (CCL7), Eotaxin (CCL11), GROα (CXCL1), MIP-2a (CXCL2), and IP-10 (CXCL10).

The subject of data set [2] is LPS-stimulated bone marrow macrophages (BMMØ). Kind of data set: BMMØ cytokine secretion following LPS stimulation (ELISA, Luminex). In kind it is cell-based, C57BL/6J mice. Here is the method:
Three hours later, cells were stimulated with 100 ng/mL LPS. After 48 hours, cell culture supernatants were collected and analyzed by enzyme-linked immunosorbent assays (ELISA) (BioLegend, San Diego, CA) to measure murine IL-6 and TNFα. MAGPIX Luminex bead-based multiplex ELISA (Thermo Fisher Scientific, Waltham, MA) measured for 7 various cytokines and chemokines, and data were analyzed using the Luminex xPONENT software (Millipore) as per manufacturer's instructions. The 7-plex panel included murine IFNβ, IL-10, IL-6, IL-1β, MCP-1 (CCL2), TNFα, and GROα (CXCL1).
After 48 hours, cell culture supernatants were collected and analyzed by enzyme-linked immunosorbent assays (ELISA) (BioLegend, San Diego, CA) to measure murine IL-6 and TNFα. MAGPIX Luminex bead-based multiplex ELISA (Thermo Fisher Scientific, Waltham, MA) measured for 7 various cytokines and chemokines, and data were analyzed using the Luminex xPONENT software (Milli-pore) as per manufacturer's instructions. The 7-plex panel included murine IFNβ, IL-10, TL-6, IL-1β, MCP-1 (CCL2), TNFα, and GROα (CXCL1).

Data set [3] deals with T cells (CD3+) from splenocytes. Kind of data set: Splenocyte apoptosis and cell death by AV/PI flow cytometry, T cells. It is filed as cell-based. Particulars: concentrations up to 30 μM. In general terms: A flow cytometer gives signals particle by particle.
In data set [4] the test system is BMMØs. Nature of the data set: Western blot analysis of acetyl-histone H3 and acetyl-α-tubulin. The note with it: 10 μM, unstimulated BMMØs, 4 and 9 hours. In general terms: A western blot detects proteins with antibodies after separation by electrophoresis.
Procedure: Day 8 BMMØs were seeded at 1×10^6 cells/well in sterile 6-well plates incubated at 37° C. and 5% CO2 overnight to allow for cell adherence. […] Cells were lysed with Halt™ Protease Inhibitor Cocktail (Cat #78429) (Thermo Fisher, Waltham MA) in RIPA Buffer (Cat #R0278) (Sigma-Aldrich, St. Louis, MO) and scraped with a cell scraper (VWR, Radnor, PA). Lysates were sonicated with a ⅛^th needle tip using a Cole-Parmer 500-Watt Ultrasonic Homogenizer at 40% amplitude for 10 seconds on ice. Lysates were then centrifuged at 4° C. for 20 minutes at 12,000×g. The supernatant was collected and frozen at −80° C. until ready for western blot analysis. Protein lysates were produced using 50/50 sample to 2×SDS/PAGE sample buffer. Proteins were then separated by SDS/PAGE and immunoblotted using Histone H3 (D1H2) XP, Acetyl-Histone H3 (lys9/Lys14), α-Tubulin (11H10), Acetyl-α-Tubulin (Lys40) (D20G3) XP and β-Actin as primary antibodies. ECL was used for detection.
Day 8 BMMØs were seeded at 1×10^6 cells/well in sterile 6-well plates incubated at 37° C. and 5% CO2 overnight to allow for cell adherence. […] Cells were lysed with Halt™ Protease Inhibitor Cocktail (Cat #78429) (Thermo Fisher, Waltham MA) in RIPA Buffer (Cat #R0278) (Sigma-Aldrich, St. Louis, MO) and scraped with a cell scraper (VWR, Radnor, PA). Lysates were sonicated with a ⅛th needle tip using a Cole-Parmer 500-Watt Ultrasonic Homogenizer at 40% amplitude for 10 seconds on ice. Lysates were then centrifuged at 4° C. for 20 minutes at 12,000×g. The supernatant was collected and frozen at −80° C. until ready for western blot analysis. Protein lysates were produced using 50/50 sample to 2×SDS/PAGE sample buffer. Proteins were then separated by SDS/PAGE and immunoblotted using Histone H3 (D1H2) XP, Acetyl-Histone H3 (Lys9/Lys14), α-Tubulin (11H10), Acetyl-α-Tubulin (Lys40) (D20G3) XP and β-Actin as primary antibodies. ECL was used for detection.
Data set [5] relates to BMMØs. In kind it is cell-based. The note with it: 0-30 μM. Here is the method: (§1) Three hours later, cells were stimulated with 100 ng/mL LPS. After 48 hours, cells were lifted using Versene and washed with cold PBS supplemented with 1% FBS and 0.4% 0.5 M EDTA (Quality Biological, Gaithersburg, MD). FcR blocking was performed with purified anti-mouse CD16/32 antibody (#101301) (Biolegend, San Diego, CA) prior to staining with Annexin V-FITC and propidium iodide kit (#640914) (BioLegend, San Diego, CA) for apoptosis and cell death. Cell staining was conducted according to BioLegend protocols for flow cytometry. Flow cytometry data were collected using a Becton Dickinson LSR II or Becton Dickinson Canto II flow cytometer. Flow plots and data processing was done using FCS Express 7 Flow Cytometry De Novo Software (De Novo, Glendale, CA).
as §1, with “After” for “Three hours later, cells were stimulated with 100 ng/mL LPS. After”

The mark [6] stands for this setting: 0-30 μM for 3 hours, then LPS 100 ng/mL 48 hours, ELISA.
The mark [7] stands for this setting: 10 μM, 3 hours before 48-hour LPS.
Setting [8] is: 10 μM, 3 hours before 48-hour LPS, Luminex, relative to LPS control.

Consider `O=C(CCCCCCC(=O)Nc1ccc(CO)cc1)NO` [SAHA-OH, N^1-hydroxy-N^8-(4-(hydroxymethyl)phenyl)octanediamide], for which, in data set [1], the “reduction of plasma IL-6” value is given as “about 50%” and the “reduction of plasma TNFα” value is reported as “about 50%”. Besides, in data set [2] (setting [6]), the IL-6 cytokine secretion result is “concentration-dependent reduction” and the TNFα cytokine secretion result is recorded as “concentration-dependent reduction”. Moreover, in data set [2] (setting [7]), the IL-6 secretion entry is given as “less effective than SAHA; also recorded: only moderately suppressed” and the MCP-1 cytokine secretions result was “non-significantly affected”. In data set [2] (setting [8]), the IFNβ cytokine levels entry was “similarly suppressed cytokine levels compared to SAHA”, the IL-1β cytokine levels entry is “did not affect IL-1β (FIG. 8B) cytokine levels as effectively as 10 μM SAHA” and the TNFα cytokine levels result is given as “similarly suppressed cytokine levels compared to SAHA”. Besides, the “GROα (CXCL1) secretion” value in data set [2] (10 μM, Luminex, compared to LPS or SAHA-treated BMMØs) is “significant upregulation”. Also, in data set [3], the “toxicity for the T cell population” value is on record as “minimal toxicity”. For the same compound, in the data set with BMMØs [4], the “acetylation of histone H3” value is listed as “slight decrease in histone H3 acetylation compared to SAHA; also recorded: reduced Ac—H3 activity compared to SAHA” and the “acetylation of α-tubulin” value is “similarly resulted in the acetylation; also recorded: similar”. Also, in the data set with BMMØs [5], the “apoptosis (AV+/PI−) over concentration” value is recorded as “apoptosis induction” and the “viability (AV−/PI−) over concentration” value is recorded as “concentration-dependent viability reduction”.
